We go through 1 compound from ChEMBL document CHEMBL3822439, “Discovery of a novel 6,7-disubstituted-4-(2-fluorophenoxy)quinolines bearing 1,2,3-triazole-4-carboxamide moiety as potent c-Met kinase inhibitors” (Eur J Med Chem, 2016).

The target of test [1] is Hepatocyte growth factor receptor (Homo sapiens, UniProt P08581). Briefly: Inhibition of c-Met (unknown origin) using poly (Glu, Tyr) 4:1 as substrate incubated for 30 mins by HTRF assay. A general note: Time-resolved FRET reads energy transfer from a long-lived donor to a nearby acceptor.
Hepatocyte growth factor receptor, sequence (P08581 whole entry): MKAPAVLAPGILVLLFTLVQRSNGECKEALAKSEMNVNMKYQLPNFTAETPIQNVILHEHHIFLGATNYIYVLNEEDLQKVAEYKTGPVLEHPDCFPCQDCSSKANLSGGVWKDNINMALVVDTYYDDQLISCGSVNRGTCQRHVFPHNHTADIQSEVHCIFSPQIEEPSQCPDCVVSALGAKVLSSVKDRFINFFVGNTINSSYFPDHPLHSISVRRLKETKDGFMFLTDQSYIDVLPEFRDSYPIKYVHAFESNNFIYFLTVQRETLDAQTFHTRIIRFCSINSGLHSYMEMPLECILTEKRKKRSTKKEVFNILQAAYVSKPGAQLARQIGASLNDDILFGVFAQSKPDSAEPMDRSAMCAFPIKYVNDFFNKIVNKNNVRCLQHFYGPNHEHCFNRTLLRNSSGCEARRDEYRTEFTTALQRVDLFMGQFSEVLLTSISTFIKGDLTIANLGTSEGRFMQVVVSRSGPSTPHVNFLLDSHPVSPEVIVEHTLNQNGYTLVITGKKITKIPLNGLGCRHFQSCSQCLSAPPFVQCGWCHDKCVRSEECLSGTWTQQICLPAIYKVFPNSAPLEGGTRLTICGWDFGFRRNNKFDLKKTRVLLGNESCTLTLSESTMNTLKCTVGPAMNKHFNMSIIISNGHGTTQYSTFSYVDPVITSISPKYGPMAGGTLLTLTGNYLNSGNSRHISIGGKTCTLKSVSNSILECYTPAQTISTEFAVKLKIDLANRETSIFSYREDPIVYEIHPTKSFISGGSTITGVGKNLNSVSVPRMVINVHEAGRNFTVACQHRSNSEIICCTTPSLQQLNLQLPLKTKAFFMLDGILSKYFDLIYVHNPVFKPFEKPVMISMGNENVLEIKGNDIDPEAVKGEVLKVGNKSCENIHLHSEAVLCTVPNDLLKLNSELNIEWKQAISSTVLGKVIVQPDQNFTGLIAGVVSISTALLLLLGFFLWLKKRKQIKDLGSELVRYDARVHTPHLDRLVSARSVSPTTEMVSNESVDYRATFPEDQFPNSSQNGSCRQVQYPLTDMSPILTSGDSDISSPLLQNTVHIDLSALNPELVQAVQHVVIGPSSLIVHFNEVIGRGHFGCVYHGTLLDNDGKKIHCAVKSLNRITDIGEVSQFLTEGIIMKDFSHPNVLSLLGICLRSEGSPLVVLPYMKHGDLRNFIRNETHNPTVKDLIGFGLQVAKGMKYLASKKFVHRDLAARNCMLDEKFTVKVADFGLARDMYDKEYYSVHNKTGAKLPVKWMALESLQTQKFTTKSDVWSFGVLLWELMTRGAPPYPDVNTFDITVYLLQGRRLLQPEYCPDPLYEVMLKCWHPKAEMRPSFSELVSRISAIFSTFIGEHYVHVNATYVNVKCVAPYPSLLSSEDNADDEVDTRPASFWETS
The nature of test [2]: Cytotoxicity against human MKN45 cells measured after 72 hrs by MTT assay. It is filed as functional, cell-based. Conditions: MKN-45, 72 h. (Tetrazolium dyes change colour on reduction, which living cells bring about.)
Test [3] concerns A549. Briefly: Cytotoxicity against human A549 cells measured after 72 hrs by MTT assay. It is filed as functional, cell-based. The following applies: A549, 72 h.
In test [4] the target is Vascular endothelial growth factor receptor 2 (Homo sapiens, UniProt P35968). Description: Inhibition of VEGFR2 (unknown origin) using poly (Glu, Tyr) 4:1 as substrate incubated for 30 mins by HTRF assay.
Test [5] in a line: Cytotoxicity against human H460 cells measured after 72 hrs by MTT assay. Conditions: NCI-H460, 72 h.
Test [6] relates to A549. Description: Potency index, ratio of foretinib IC50 to compound IC50 for human A549 cells. It counts as functional.
A short description of test [7]: Potency index, ratio of foretinib IC50 to compound IC50 for human H460 cells. It is filed as functional.
Test [8] deals with T1, Receptor-type tyrosine-protein kinase FLT3 (Homo sapiens, UniProt P36888).
T1 sequence (P36888 whole entry): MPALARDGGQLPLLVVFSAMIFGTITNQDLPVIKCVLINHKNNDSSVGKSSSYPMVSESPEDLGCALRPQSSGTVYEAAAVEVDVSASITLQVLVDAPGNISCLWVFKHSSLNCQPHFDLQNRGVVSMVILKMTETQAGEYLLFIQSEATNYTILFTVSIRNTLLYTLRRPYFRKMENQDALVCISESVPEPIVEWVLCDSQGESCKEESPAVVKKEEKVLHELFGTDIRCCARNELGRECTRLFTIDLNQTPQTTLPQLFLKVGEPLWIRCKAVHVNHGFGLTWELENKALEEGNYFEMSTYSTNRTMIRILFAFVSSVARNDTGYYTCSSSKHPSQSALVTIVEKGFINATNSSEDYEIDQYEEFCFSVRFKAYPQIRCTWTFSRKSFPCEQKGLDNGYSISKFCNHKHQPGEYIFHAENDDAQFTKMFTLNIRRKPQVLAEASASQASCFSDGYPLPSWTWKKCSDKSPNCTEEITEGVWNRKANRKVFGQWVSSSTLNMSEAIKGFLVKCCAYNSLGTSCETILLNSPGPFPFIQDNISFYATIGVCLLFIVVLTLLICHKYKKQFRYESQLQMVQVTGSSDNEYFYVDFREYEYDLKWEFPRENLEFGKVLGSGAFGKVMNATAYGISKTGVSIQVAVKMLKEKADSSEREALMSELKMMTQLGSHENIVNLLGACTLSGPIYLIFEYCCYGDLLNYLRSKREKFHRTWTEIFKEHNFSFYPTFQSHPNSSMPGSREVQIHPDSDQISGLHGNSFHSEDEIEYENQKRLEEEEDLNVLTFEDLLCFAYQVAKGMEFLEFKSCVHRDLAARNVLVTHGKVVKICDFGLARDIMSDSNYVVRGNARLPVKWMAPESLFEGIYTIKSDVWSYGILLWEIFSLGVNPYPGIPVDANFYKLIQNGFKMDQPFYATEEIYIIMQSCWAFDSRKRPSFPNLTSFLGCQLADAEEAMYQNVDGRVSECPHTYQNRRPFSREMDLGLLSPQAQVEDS
Description: Inhibition of FLT3 (unknown origin) using poly (Glu, Tyr) 4:1 as substrate incubated for 30 mins by HTRF assay.

In test [9] the target is Macrophage-stimulating protein receptor (Homo sapiens, UniProt Q04912). Briefly: Inhibition of Ron (unknown origin) using poly (Glu, Tyr) 4:1 as substrate incubated for 30 mins by HTRF assay.
Macrophage-stimulating protein receptor, sequence (Q04912 25-304 limits assumed): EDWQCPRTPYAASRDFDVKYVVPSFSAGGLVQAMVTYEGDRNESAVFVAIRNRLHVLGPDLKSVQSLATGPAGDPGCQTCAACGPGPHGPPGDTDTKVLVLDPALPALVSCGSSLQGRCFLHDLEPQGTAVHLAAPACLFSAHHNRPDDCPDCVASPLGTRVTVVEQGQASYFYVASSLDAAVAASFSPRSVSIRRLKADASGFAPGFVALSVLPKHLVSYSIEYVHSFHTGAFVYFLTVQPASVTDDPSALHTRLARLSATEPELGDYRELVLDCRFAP
Macrophage-stimulating protein receptor, sequence (Q04912 310-1400 limits assumed): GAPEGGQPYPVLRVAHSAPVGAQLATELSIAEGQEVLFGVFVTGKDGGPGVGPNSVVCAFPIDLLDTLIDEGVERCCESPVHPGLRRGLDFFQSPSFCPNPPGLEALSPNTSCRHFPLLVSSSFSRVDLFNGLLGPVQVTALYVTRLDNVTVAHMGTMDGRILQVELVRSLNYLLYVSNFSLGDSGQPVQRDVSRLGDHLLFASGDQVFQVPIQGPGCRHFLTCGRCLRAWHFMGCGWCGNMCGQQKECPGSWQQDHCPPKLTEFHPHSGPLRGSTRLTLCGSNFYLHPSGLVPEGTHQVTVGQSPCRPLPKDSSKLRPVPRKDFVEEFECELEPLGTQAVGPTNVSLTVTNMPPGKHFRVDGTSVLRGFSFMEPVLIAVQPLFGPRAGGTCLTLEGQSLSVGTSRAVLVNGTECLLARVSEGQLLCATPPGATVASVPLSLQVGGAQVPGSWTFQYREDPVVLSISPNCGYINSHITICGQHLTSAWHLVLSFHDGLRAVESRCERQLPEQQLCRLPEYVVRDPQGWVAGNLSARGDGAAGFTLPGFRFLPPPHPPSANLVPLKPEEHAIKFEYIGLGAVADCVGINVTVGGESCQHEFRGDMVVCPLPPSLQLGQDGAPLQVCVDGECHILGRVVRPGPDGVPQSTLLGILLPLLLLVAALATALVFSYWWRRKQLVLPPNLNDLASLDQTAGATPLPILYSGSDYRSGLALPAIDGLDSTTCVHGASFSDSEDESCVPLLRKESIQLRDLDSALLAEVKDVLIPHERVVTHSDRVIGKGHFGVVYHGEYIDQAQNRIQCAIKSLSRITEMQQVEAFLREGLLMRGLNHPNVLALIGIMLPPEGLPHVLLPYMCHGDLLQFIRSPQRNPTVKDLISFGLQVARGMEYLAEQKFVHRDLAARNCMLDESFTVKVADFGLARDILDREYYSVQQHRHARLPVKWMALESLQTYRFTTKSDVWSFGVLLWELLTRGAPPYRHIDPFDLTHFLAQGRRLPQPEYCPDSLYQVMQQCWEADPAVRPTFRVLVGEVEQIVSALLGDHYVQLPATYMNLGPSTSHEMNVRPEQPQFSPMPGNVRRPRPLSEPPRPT
Test [10] has as its system HT-29. Briefly: Potency index, ratio of foretinib IC50 to compound IC50 for human HT-29 cells. It is filed as functional.
Test [11] addresses Epidermal growth factor receptor (Homo sapiens, UniProt P00533). Briefly: Inhibition of EGFR (unknown origin) using poly (Glu, Tyr) 4:1 as substrate incubated for 30 mins by HTRF assay.
Test [12] concerns HT-29. Description: Cytotoxicity against human HT-29 cells measured after 72 hrs by MTT assay. The following applies: HT-29, 72 h.
The target in test [13] is Mast/stem cell growth factor receptor Kit (Homo sapiens, UniProt P10721). Briefly: Inhibition of c-kit (unknown origin) using poly (Glu, Tyr) 4:1 as substrate incubated for 30 mins by HTRF assay.
Mast/stem cell growth factor receptor Kit, sequence (P10721 whole entry): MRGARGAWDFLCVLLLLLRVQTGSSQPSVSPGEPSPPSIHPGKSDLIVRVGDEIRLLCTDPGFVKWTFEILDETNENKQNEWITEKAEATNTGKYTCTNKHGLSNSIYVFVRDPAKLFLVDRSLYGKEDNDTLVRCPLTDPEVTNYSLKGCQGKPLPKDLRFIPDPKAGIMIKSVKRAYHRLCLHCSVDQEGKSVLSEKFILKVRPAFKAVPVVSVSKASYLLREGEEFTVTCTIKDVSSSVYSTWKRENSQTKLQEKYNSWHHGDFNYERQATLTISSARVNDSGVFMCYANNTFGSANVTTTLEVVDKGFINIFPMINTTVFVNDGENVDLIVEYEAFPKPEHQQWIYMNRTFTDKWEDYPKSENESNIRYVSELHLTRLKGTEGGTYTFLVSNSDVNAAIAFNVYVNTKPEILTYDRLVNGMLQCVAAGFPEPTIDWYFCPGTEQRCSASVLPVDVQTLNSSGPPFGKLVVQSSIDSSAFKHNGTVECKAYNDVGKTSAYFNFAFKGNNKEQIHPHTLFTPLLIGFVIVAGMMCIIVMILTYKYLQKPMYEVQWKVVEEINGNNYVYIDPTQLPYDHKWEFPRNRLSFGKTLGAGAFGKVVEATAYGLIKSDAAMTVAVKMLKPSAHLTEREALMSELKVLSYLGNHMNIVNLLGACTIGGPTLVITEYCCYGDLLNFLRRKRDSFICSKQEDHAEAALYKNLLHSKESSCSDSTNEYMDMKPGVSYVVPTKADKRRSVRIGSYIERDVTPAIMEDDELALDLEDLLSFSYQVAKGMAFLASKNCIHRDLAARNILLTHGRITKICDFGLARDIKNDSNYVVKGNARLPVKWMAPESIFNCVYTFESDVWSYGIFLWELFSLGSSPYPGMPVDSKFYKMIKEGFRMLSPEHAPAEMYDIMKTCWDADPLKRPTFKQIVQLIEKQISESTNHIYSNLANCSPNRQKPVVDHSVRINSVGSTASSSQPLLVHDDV
Test [14] relates to MKN-45. Briefly: Potency index, ratio of foretinib IC50 to compound IC50 for human MKN45 cells. It is filed as functional.

SMILES strings stand for the structures.

Epidermal growth factor receptor, sequence (P00533 whole entry): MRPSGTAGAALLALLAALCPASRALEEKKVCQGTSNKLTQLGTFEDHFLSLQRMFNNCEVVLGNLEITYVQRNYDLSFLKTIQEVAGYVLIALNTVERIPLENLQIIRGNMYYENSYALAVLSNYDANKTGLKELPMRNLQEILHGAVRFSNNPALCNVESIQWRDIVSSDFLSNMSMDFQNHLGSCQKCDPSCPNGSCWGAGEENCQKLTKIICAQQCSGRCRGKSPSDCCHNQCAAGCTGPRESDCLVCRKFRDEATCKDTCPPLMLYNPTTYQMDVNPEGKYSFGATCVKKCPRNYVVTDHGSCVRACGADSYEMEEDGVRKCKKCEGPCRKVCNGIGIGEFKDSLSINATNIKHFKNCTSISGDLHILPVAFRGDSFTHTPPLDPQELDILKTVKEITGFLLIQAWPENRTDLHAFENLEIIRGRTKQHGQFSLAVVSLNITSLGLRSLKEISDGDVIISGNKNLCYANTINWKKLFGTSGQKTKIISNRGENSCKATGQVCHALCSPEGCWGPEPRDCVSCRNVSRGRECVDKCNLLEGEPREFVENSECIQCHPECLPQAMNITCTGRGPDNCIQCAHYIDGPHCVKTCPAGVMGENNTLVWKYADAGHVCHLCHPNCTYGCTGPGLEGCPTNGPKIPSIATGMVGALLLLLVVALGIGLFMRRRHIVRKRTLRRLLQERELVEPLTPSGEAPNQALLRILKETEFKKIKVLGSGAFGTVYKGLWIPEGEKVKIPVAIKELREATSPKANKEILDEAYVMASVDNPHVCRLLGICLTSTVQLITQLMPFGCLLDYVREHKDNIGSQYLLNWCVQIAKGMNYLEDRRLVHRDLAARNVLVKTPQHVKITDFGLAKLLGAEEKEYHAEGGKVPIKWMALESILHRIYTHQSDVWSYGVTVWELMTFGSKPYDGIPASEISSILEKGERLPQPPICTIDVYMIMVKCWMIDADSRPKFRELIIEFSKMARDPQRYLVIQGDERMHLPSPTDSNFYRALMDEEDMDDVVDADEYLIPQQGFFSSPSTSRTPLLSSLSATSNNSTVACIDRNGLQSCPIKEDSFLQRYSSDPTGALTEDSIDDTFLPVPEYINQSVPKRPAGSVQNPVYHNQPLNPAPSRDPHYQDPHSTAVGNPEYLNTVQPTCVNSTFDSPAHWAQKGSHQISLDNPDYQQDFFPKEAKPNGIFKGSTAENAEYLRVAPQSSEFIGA

The term IC50 denotes the concentration at which inhibition is half-maximal. A high value points to lower potency. As for `COc1cc2c(Oc3ccc(NC(=O)c4cn(-c5ccccc5Cl)nn4)cc3F)ccnc2cc1OCCCN1CCCCC1`, the 50% inhibitory concentration (IC50) in test [1] amounted to 2.27 nM; in test [2], 30 nM; in [3], 70 nM; in [4], 96.7 nM; in [5], 180 nM; in test [8], 8.91 nM. Besides, the IC50 in [9] was determined as 346 nM; in test [11], 529 nM; in test [12] it was 100 nM; in test [13], 9.36 nM. Further, the “Ratio IC50” value in [6] was 1.6; in test [7], 1.2; in test [10] it was 1.9; in test [14], 1.1.
